Results on twelve compounds are retold here after patent publication US5374720A, “2-(substituted pyrrolidinylthio)carbapenem derivatives” (Banyu Pharmaceutical Co., Ltd., priority 1990, dated 1994).

≈ marks a conversion by molar mass, not a printed value. Where two headings read alike, the source gives them in different places.

One series deals with P. aeruginosa AKR17. Kind of series: in vitro antibacterial activity, agar plate dilution method (MIC). In kind it is cell-based. Particulars: for MIC: Pseudomonas aeruginosa, AKR17, 16 h, read-out: Minimum Inhibitory Concentration (MIC). The procedure:
(§1) One platinum loopful of each test microorganism incubated overnight in Mueller Hinton broth, was inoculated to Mueller Hinton agar (inoculum size: 10^6 CFU/ml). Such culture media contained antibacterial agents in various concentrations. After incubation at 37° C. for 16 hours, the minimum inhibitory concentrations (MIC: μg/ml) were measured.

In another series the test system is P. aeruginosa MB5000. The series is described as above. The class given is cell-based. Particulars: for MIC: Pseudomonas aeruginosa, MB5000, 16 h, read-out: Minimum Inhibitory Concentration (MIC). The procedure:
as §1

A further series relates to P. aeruginosa MB5002. Described as above. In kind it is cell-based. Conditions: for MIC: Pseudomonas aeruginosa, MB5002, 16 h, read-out: Minimum Inhibitory Concentration (MIC). The method, then: as §1
For another series, the system named is Meth-R S. aureus. Briefly: disc diffusion test, relative antibacterial potency to thienamycin. In kind it is cell-based. Particulars: ratio to thienamycin (=1.0), larger = higher activity. The procedure: (§2) The antibacterial activities of the compounds of the present invention described in the Examples, as representative examples of the compound of the present invention, were measured by a disc diffusion test by the method of Bauer et al. (Amer. J. Clin. Pathol., vol. 45, p. 493 (1966)). Thienamycin or imipenem was used as the internal standard.
(§3) MIC of each test compound was calculated from the diameter of the inhibition ring formed by the disc containing the test compound by using the calculation formula reported by Humphrey and Lightbown (J. Gen. Microbiol., vol. 7, p. 129 (1952)). For each microorganism, a geometrical average of MIC was obtained, and the activity ratio to thienamycin was calculated.
(§4) The antibacterial activities are represented by the ratio to thienamycin (=1.0), whereby the larger the numerical value, the higher the activities.
In general terms: Agar diffusion results depend on both activity and mobility in agar.

A further series deals with THM-R P. aeruginosa. Described as above. Conditions: ratio to thienamycin (=1.0), larger = higher activity. In kind it is cell-based. The procedure: as §2, §3, §4
The subject of a further series is DHP-I. Kind of series: DHP-I susceptibility (method by Kropp et al.). In kind it is in vitro ADME. From the text:
The DHP-I susceptibility was quantitatively analyzed by the method by Kropp et al., Antimicrob. Agents Chemother., vol. 22, p. 62-70 (1982), whereby the smaller the numerical value representing the ratio to imipenem (=1.0), the higher the stability. The antibacterial potency and the DHP-I susceptibility of the compounds of the present invention were compared with imipenem and meropenem.

Series [1] deals with gram positive bacteria and gram negative bacteria. Conditions: background; cited from earlier work.
Series [2] relates to renal dehydropeptidase I (DHP-I). Conditions: background; cited from earlier work.
For series [3] the following is noted: background, cited from earlier work.
For series [4] the following is noted: background; cited from earlier work.
In series [5] the test system is DHP-I in the human kidney. Conditions: background; cited from earlier work.
A further series concerns β-lactamase. Particulars: background; cited from earlier work.
The conditions of series [6]: due to the decomposition products; cited from earlier work.
The test system of series [7] is highly methicillin resistant Staphylococcus aureus which is resistant to imipenem and imipenem resistant Pseudomonas aeruqinosa. Particulars: background; cited from earlier work.
The test system of series [8] is highly methicillin resistant Staphylococcus aureus. Conditions: background; cited from earlier work.
[9] abbreviates: P. aeruginosa AKR17 (lactamase producing microorganism), Mueller Hinton agar, 10^6 CFU/ml, 37° C., 16 hours.
Where [10] appears, read: P. aeruginosa MB5000, Mueller Hinton agar, 10^6 CFU/ml, 37° C., 16 hours.
[11] abbreviates: P. aeruginosa MB5002, Mueller Hinton agar, 10^6 CFU/ml, 37° C., 16 hours.
[12] abbreviates: ratio to imipenem (=1.0), smaller = higher stability.

As for `C[C@@H](O)[C@H]1C(=O)N2C(C(=O)O)=C(S[C@@H]3CN[C@H](C4CCNC4)C3)[C@H](C)[C@H]12` (single isomer, unassigned) [Example 11 Diastereomer B], the “Minimum Inhibitory Concentration (MIC)” value came out at 1.56 µg/mL with P. aeruginosa AKR17 (setting [9]), 0.2 µg/mL in the series with P. aeruginosa MB5000 (setting [10]) and 1.56 µg/mL in the series on P. aeruginosa MB5002 (setting [11]). The “Relative antibacterial potency to thienamycin” value (shortened to “Relative antibacterial potency”) in the series on Meth-R S. aureus was found to be 12.3; in the series with THM-R P. aeruginosa, 11.5. In addition, the DHP-I susceptibility with DHP-I (setting [12]) is given as < 0.05.
On to `C[C@@H](O)[C@H]1C(=O)N2C(C(=O)[O-])=C(S[C@@H]3CN[C@H](C4CC[N+](C)(C)C4)C3)[C@H](C)[C@H]12` (single isomer, unassigned) [Example 13], for which the “Relative antibacterial potency” value with THM-R P. aeruginosa is 11.5. For the same compound, the DHP-I susceptibility in the series with DHP-I (setting [12]) is < 0.05.
For `C[C@@H](O)[C@H]1C(=O)N2C(C(=O)O)=C(S[C@@H]3CN[C@H](C4CCNC4)C3)[C@H](C)[C@H]12` (single isomer, unassigned) [Example 11 Diastereomer A], the MIC in the series with P. aeruginosa AKR17 (setting [9]) was 0.78 µg/mL (≈ 2.04 µM); with P. aeruginosa MB5000 (setting [10]), 0.1 µg/mL (≈ 0.262 µM); in the series with P. aeruginosa MB5002 (setting [11]), 0.78 µg/mL (≈ 2.04 µM). The results for the “Relative antibacterial potency” value in the series with Meth-R S. aureus and in the series with THM-R P. aeruginosa were 15.2 and 12.7, respectively. Besides, the DHP-I susceptibility in the series on DHP-I (setting [12]) is < 0.05.
Turning to `C[C@@H](O)[C@H]1C(=O)N2C(C(=O)O)=C(S[C@@H]3CN[C@H](CC4CN[C@H](C(N)=O)C4)C3)[C@H](C)[C@H]12` (stereo partly drawn) [Example 32, (1R, 5S,6S)-2-[(2R,4S)-2-[(2S)-2-carbamoylpyrrolidin-4-ylmethyl]pyrrolidin-4-ylthio]-6-[(R)-1-hydroxyethyl]-1-methyl-1-carbapen-2-em-3-carboxylic acid], in the series on THM-R P. aeruginosa, the “Relative antibacterial potency” value amounted to 19.5. Further, the DHP-I susceptibility with DHP-I (setting [12]) is < 0.05.
In the case of `C[C@@H](O)[C@H]1C(=O)N2C(C(=O)[O-])=C(S[C@@H]3CN[C@H](C4CC[N+](C)(C)C4)C3)[C@H](C)[C@H]12` (single isomer, unassigned) [Example 13 Diastereomer A], the MIC was 1.56 µg/mL (≈ 3.81 µM) in the series on P. aeruginosa AKR17 (setting [9]), 0.2 µg/mL (≈ 0.488 µM) with P. aeruginosa MB5000 (setting [10]) and 0.78 µg/mL (≈ 1.9 µM) in the series with P. aeruginosa MB5002 (setting [11]).
With `C[C@@H](O)[C@H]1C(=O)N2C(C(=O)O)=C(SCCN)C[C@H]12` [Thienamycin, thienamycin], the antibacterial activities result in series [1] is “strong antibacterial activities over a wide range against gram positive bacteria and gram negative bacteria”. Further, in [2], the “decomposition by / stability against DHP-I” value is “likely to be decomposed by a certain enzyme in vivo such as renal dehydropeptidase I”. Moreover, the chemical stability result in series [3] is “chemically unstable”. Further, the “recovery rate in the urine” value in [4] is listed as “low”. For the same compound, in series [5], the “decomposition by DHP-I in the human kidney” value is given as “likely to be decomposed by DHP-I in the human kidney”.
With `C[C@@H](O)[C@H]1C(=O)N2C(C(=O)O)=C(SCCN=CN)C[C@H]12` [Imipenem, (5R,6S,8R)-3-[[2-(formimidoylamino)ethyl]thio]-6-(1-hydroxyethyl)-7-oxo-1-azabicyclo[3.2.0]hept-2-en-2-carboxylic acid monohydrate, reference compound], the MIC with P. aeruginosa AKR17 is 6.25 µg/mL; with P. aeruginosa MB5000, 1.56 µg/mL; in the series with P. aeruginosa MB5002, 3.13 µg/mL. For the same compound, the “Relative antibacterial potency” value was 2.57 in the series on Meth-R S. aureus and 2.0 with THM-R P. aeruginosa. In the series on DHP-I (setting [12]), the DHP-I susceptibility is reported as 1.0. In addition, the antibacterial activities entry in [1] is recorded as “equal or higher level than thienamycin against various types of bacteria”. In addition, in [3] (compared with thienamycin), the “stability in the solid form or in an aqueous solution” value was “remarkably improved over thienamycin”. Further, the β-lactamase resistance result in the series with β-lactamase was “has β-lactamase resistance”. In series [6], the “toxicity against the kidney” value is “presents toxicity against the kidney due to the decomposition products”. For the same compound, the “decomposition by DHP-I in the human kidney” value in series [5] was “likely to be decomposed by DHP-I in the human kidney”. Moreover, the “treating effects against resistant bacteria” value in series [7] is given as “does not show adequate treating effects against these resistant bacteria”.
As for `C[C@@H](O)[C@H]1C(=O)N2C(C(=O)O)=C(S[C@@H]3CN[C@H](C4CCN(C)CC4)C3)[C@H](C)[C@H]12` [Example 49], the MIC worked out at 1.56 µg/mL (≈ 3.81 µM) in the series on P. aeruginosa AKR17 (setting [9]), 0.2 µg/mL (≈ 0.488 µM) in the series on P. aeruginosa MB5000 (setting [10]) and 0.78 µg/mL (≈ 1.9 µM) in the series with P. aeruginosa MB5002 (setting [11]). For the same compound, the “Relative antibacterial potency” value in the series on Meth-R S. aureus is given as 13.6; with THM-R P. aeruginosa, 13.8. Moreover, the DHP-I susceptibility in the series with DHP-I (setting [12]) is recorded as 0.10.
`C[C@@H](O)[C@H]1C(=O)N2C(C(=O)O)=C(S[C@@H]3CN[C@H](C4CCNCC4)C3)[C@H](C)[C@H]12` [Example 43, (1R,5S,6S)-6-[(R)-1-hydroxyethyl]-1-methyl-2-[(2S,4S)-2-(piperidin-4-yl)pyrrolidin-4-ylthio]-1-carbapen-2-em-3-carboxylic acid]: the MIC was found to be 1.56 µg/mL (≈ 3.94 µM) in the series with P. aeruginosa AKR17 (setting [9]), 0.1 µg/mL (≈ 0.253 µM) with P. aeruginosa MB5000 (setting [10]) and 0.39 µg/mL (≈ 0.986 µM) with P. aeruginosa MB5002 (setting [11]).
For `C[C@@H](O)[C@H]1C(=O)N2C(C(=O)O)=C(S[C@@H]3CN[C@H](C(=O)N(C)C)C3)[C@H](C)[C@H]12` [Meropenem, (4R,5S,6S,8R,2'S,4'S)-6-(1-hydroxyethyl)-4-methyl-3-[2-(N,N-dimethylaminocarbonyl)-pyrrolidin-4-ylthio]-7-oxo-1-azabicyclo[3.2.0]hept-2-en-2-carboxylic acid, reference compound], the MIC in the series on P. aeruginosa AKR17 (setting [9]) came out at 3.13 µg/mL (≈ 8.16 µM); in the series with P. aeruginosa MB5000 (setting [10]), 0.39 µg/mL (≈ 1.02 µM); with P. aeruginosa MB5002 (setting [11]), 6.25 µg/mL (≈ 16.3 µM). Moreover, the figures for the “Relative antibacterial potency” value in the series with Meth-R S. aureus and with THM-R P. aeruginosa were 3.22 and 6.9, respectively. This compound also had a DHP-I susceptibility in the series on DHP-I of 0.12. Moreover, in series [8], the “antibacterial activities against highly methicillin resistant Staphylococcus aureus” value is listed as “not adequate”. For the same compound, the “decomposition by / stability against DHP-I” value in series [2] is reported as “substantially improved”.
For the compound `C[C@@H](O)[C@H]1C(=O)N2C(C(=O)O)=C(S[C@@H]3CN[C@H](C4CCN(C)C4)C3)[C@H](C)[C@H]12` (single isomer, unassigned) [Example 12 Diastereomer A], the MIC in the series on P. aeruginosa AKR17 (setting [9]) and in the series with P. aeruginosa MB5002 (setting [11]) was 1.56 µg/mL (≈ 3.94 µM) each time.
On to `C[C@@H](O)[C@H]1C(=O)N2C(C(=O)O)=C(S[C@@H]3CN[C@H](CC4CN[C@H](C(=O)N(C)C)C4)C3)[C@H](C)[C@H]12` (stereo partly drawn) [Example 34, (1R,5S,6S)-6-[(R)-1-hydroxyethyl]-1-methyl-2-[(2R,4S)-2-[(2S)-2-(dimethylcarbamoyl)pyrrolidin-4-ylmethyl]pyrrolidin-4-ylthio]-1-carbapen-2-em-3-carboxylic acid], for which the “Relative antibacterial potency” value in the series with Meth-R S. aureus is reported as 22.7; in the series with THM-R P. aeruginosa it was 21.6. Moreover, the DHP-I susceptibility in the series with DHP-I (setting [12]) turned out to be 0.07.
